Here are results for 7 molecules from patent US7214512B2, “Genomic mammary Amyloid a sequence” (The Board of Regents of the University of Nebraska, priority 1999, dated 2007).

The subject of one series is MUC3 mRNA. The series is described as follows: MUC3 mRNA expression in intestinal epithelial cell culture assay. Format: cell-based, human. Particulars: for MUC3 mRNA stimulation versus control (in words) / MUC3 mRNA/28s RNA ratio, Mean: 30 minutes at 37° C. at 50 μg/ml; for MUC3 mRNA stimulation versus control (in words): p<0.008; for MUC3 mRNA/28s RNA ratio, Mean: peptide comparison, Control = 100.000. The text has this:
Different mucin genes have been identified and to date, twelve human mucin genes have been identified. However, MUC3 mucin is the predominant intestinal mucin. It has previously been shown that the MUC3 mucins are effective in preventing the adherence of enteropathogenic Escherichia coli (EPEC) to intestinal epithelial cells. […] It is also well known that breast-feeding infants are far less susceptible to infectious diarrhea than formula fed infants. There are a number of theories why this is so, but it is hypothesized that milk-associated amyloid (colostrum SAA) may be an important inducer of MUC3 gene expression. Applicant has evaluated MUC3 mRNA expression using an in vitro human cell culture assay system. In this system, intestinal cells incubated with the N-terminal peptide sequence of colostrum SAA have shown increased MUC3 mRNA expression as compared to control cells grown without the addition of colostrum SAA to the cell culture medium. To further explore this finding, Applicant has evaluated the functional specificity of the N-terminal peptide sequence of colostrum SAA by evaluation of MUC3 expression in the same in vitro assay using colostrum SAA N-terminal peptide sequences that have been randomly scrambled and a colostrum SAA peptide sequence downstream of the N-terminal sequence. If the expression of MUC3 is increased then intestinal cells grown in the presence of colostrum SAA should have a greater capacity to inhibit adherence of bacterial pathogens. This will be studied using EPEC in an in vitro assay system pre-incubated with colostrum SAA in the cell culture medium. Enteropathogenic E. coli are non-invasive, non-toxin producing pathogens that have been recognized as a significant cause of diarrhea in third world countries and in day care settings in developed countries. Future studies will evaluate the benefits of colostrum SAA in in vivo studies as well as characterized animal equivalent to human EPEC. Colostrum associated SAA provides a means to naturally upregulate the innate protective mechanisms of the human intestine and would provide a novel form of therapy to a common problem that occurs all too often in the third world leads to death of infants and in the developed world countries and leads to significant morbidity and cost. Furthermore, prevention of intestinal infections for traveler's or those having to live in conditions with altered sanitary practices would also reduce morbidity. Thus, this therapy offers an effective, natural, non-drug/chemical therapy.
(§1) These four peptides were used in a cell culture assay designed to evaluate them for their properties of inducing mucin (MUC) mRNA production, either MUC3 or MUC2 according to the methods described by Mack et al. (Biochem. Biophys. Res. Commun. 199: 1012–1018, 1994 and Am J Physiol. Vol. 4, part 1, pg. G841–950, 1999).
N-Terminal Peptide Titration and MUC3 mRNA Expression. Intestinal epithelial cells, Mack et al. 1994, 1999, were exposed to the N-terminal 10 amino acid bovine colostrum-SAA peptide (SEQ ID NO:30) at various concentrations for 30 minutes incubation at […]. The cells were incubated an additional hour following replacement of the test medium with fresh medium without peptide and then the total cellular niRNA isolated and analyzed for MUC3 specific mRNA. […] The optimum concentration was 50 μg/ml medium (see FIG. 7).
MUC3 Stimulation. MUC3 stimulating activity of the N-terminal 10 amino acid bovine colostrum-SAA peptide was compared to the activity of the “Limited Scramble”, the “Total Scramble” and “C-Terminal peptides”. Optimum time and temperature of incubation and concentration of peptides was for 30 minutes at 37° C. at 50 μg/ml respectively.

For another series, the system named is MUC2 mRNA. The series can be described thus: MUC2 mRNA expression in intestinal epithelial cells cultured under conditions favoring MUC2. Format: cell-based, human. To be noted: for MUC2 mRNA/28s RNA ratio, Mean: peptide comparison, conditions optimized for MUC3 stimulation, Control = 100.000.
Excerpt: as §1
MUC2 mRNA Stimulation. To address whether the N-Terminal 10 amino acid bovine colostrum-SAA peptide would stimulate mRNA synthesis for MUC2 production, intestinal epithelial cells were cultured under conditions favoring MUC2 expression rather than MUC3. All peptides were used at concentrations and conditions that were previously optimized for MUC3 stimulation. […] Additionally, conditions were changed to 2× the optimum MUC3 incubation time (1 hr). […] The evidence strongly indicates specificity of function in stimulating the production of a mucin produced mainly in the small intestine (MUC3) over one produced primarily in the large intestine (MUC2) (see FIG. 9).

In series [1] the test system is Bovine MAC-T mammary gland epithelial cells. The series is described as follows: Colostrum-SAA production by MAC-T cells stimulated with prolactin (ELISA). Format: cell-based. Here is the method: Bovine MAC-T mammary gland epithelial cells were obtained from ATCC (CRL-10274) and cultured according to recommended conditions (Turner, J D and Huynh H. Immortalized bovine mammary epithelial cell line. U.S. Pat. No. 5,227,301 dated Jul. 13, 1993). MAC-T cells were cultured on Dulbecco's Modified Eagles Media (DMEM) supplemented with 10% Fetal Calf Serum (FCS), 5 μg/ml insulin, 1 μg/ml hydrocortisone and fungizone. Cells were incubated at 37° C. with 5% CO2. For colostrum-SAA production the cells were seeded onto type I Collagen coated plates. After 14 hours of incubation, the cells were washed twice with Dulbecco's phosphate buffered saline (DPBS) and incubated in media (DMEM, 5 μg/ml insulin, 1 μg/ml hydrocortisone and 2.5% FCS) supplemented with prolactin from sheep pituitary gland (5 μg/ml) for the stimulation of colostrum-SAA production. Approximately one half of the media was replaced daily with fresh prolactin supplemented media. Standard ELISA for the quantitation of SAA (FIG. 3) was used to assay aliquots of the growth media collected on the different days for the presence of colostrum-SAA.
Cells were kept in culture for 41 days in media supplemented with prolactin. Levels of colostrum-SAA production reached a maximum of almost 3000 ng/ml.
(ELISA stands for enzyme-linked immunosorbent assay.)

Series [2] is described as follows: Isoelectric focusing (IEF) and 2-D gel of SAA preparations. Format: physicochemical. Particulars: IEF on IPG strips, anti-SAA monoclonal antibody stain. The text has this:
Isoelectric Focusing (IEF) of SAA from serum, colostrum and cell culture fluid. The PROTEIN IEF Cell (BioRad) was used for the isoelectric focusing of the various SAA preparations. Ready Strip IPG Strips (BioRad Laboratories) with a pH range of 3–10 were used for the IEF. The second dimension (2-D) of the protein analysis was done by subjecting the IPG strips to 12% SDS-PAGE gel and electroblotting onto a PVDF membrane. The strips and blots were done in duplicate so that one of the blots could be stained with a protein stain, Coomassie Brilliant Blue, (CBB) and the other stained with the anti-SAA monoclonal antibody for the identification of the SAA protein isoforms. The samples also contained internal IEF standards (BioRad Laboratories) so that isoelectric point (pI) of each SAA isoforms could be determined. By comparing the antibody stained spots to the spots of the standards stained with CBB the apparent pI of the SAA isoforms could be determined. […]
The proteins subjected to the IEF and 2-D analysis were either affinity purified as described for the cell culture fluid or, in the case of the serum only semi-purified by hydrophobic chromatography. SAA is a highly hydrophobic molecule and will bind readily to Octyl Sepharose beads and then under the appropriate conditions can be eluted off the matrix. […]

Where “and” joins values, the source holds several entries; their conditions need not be identical. Equal values may be shown once.

As to “MWGLTKFEAG (limited scramble for experiment) [N-terminal peptide in which the four TFLK amino acids were scrambled in their order, reference compound]”, in the series on MUC3 mRNA, the “MUC3 mRNA stimulation versus control (in words)” value is reported as “lack of stimulation” and the “MUC3 mRNA/28s RNA ratio, Mean” value was determined as 95.000. Besides, the “MUC2 mRNA/28s RNA ratio, Mean” value in the series on MUC2 mRNA worked out at 87.167.

Regarding “MWGTFLKEAG (N-terminal region of bovine colostrum SAA) [10 amino acid N-terminal portion of mature bovine colostrum-SAA containing the conserved TFLK]”, in the series with MUC3 mRNA, the “time in which intestinal mucin genes are turned on” value was ≤ 30 min; the “MUC3 mRNA stimulation versus control (in words)” value is “stimulated MUC3 mRNA statistically significantly over the control values”; the “MUC3 mRNA/28s RNA ratio, Mean” value turned out to be 174.833. In addition, the “optimum concentration for MUC3 mRNA stimulation” value in the series on MUC3 mRNA (30 minutes incubation) amounted to 50 μg/ml medium. Besides, the “MUC2 mRNA increase over control (in words)” value in the series with MUC2 mRNA (100 and 500 μg/ml, incubation time 1 hr) was “None of these changes resulted in MUC2 mRNA increase over control values”. Further, in the series with MUC2 mRNA (concentrations and conditions optimized for MUC3 stimulation), the “MUC2 mRNA stimulation versus control (in words)” value was “the values were not significantly different”. Moreover, in the series on MUC2 mRNA, the “MUC2 mRNA/28s RNA ratio, Mean” value was determined as 101.167.

On to “GKFAWEGMTL (randomized experimental control sequence) [Total Scramble, control peptide with the amino acids of the entire N-Terminal peptide in random order, reference compound]”, for which the “MUC3 mRNA/28s RNA ratio, Mean” value in the series on MUC3 mRNA is 109.333. Moreover, the “MUC2 mRNA/28s RNA ratio, Mean” value in the series with MUC2 mRNA stood at 65.833.

As for “DAAQRGPQQA (peptide of residues in C-terminal region of bovine SAA used as experimental control) [control 10 amino acid peptide, first 7 residues from the C-terminal region of bovine SAA, reference compound]”, the “MUC3 mRNA/28s RNA ratio, Mean” value in the series on MUC3 mRNA is 111.333. The “MUC2 mRNA/28s RNA ratio, Mean” value in the series on MUC2 mRNA was 67.500.

B1: prolactin: prolactin from sheep pituitary gland, used to stimulate colostrum-SAA production (protein, UniProt P01240 31-229, looked up)
Prolactin: TPVCPNGPGNCQVSLRDLFDRAVMVSHYIHNLSSEMFNEFDKRYAQGKGFITMALNSCHTSSLPTPEDKEQAQQTHHEVLMSLILGLLRSWNDPLYHLVTEVRGMKGVPDAILSRAIEIEEENKRLLEGMEMIFGQVIPGAKETEPYPVWSGLPSLQTKDEDARHSAFYNLLHCLRRDSSKIDTYLKLLNCRIIYNNNC
With B1, the “maximum level of colostrum-SAA production” value in series [1] (prolactin 5 μg/ml in media, 41 days in culture) is ~3000 ng/mL. Besides, the “detection of colostrum-SAA in media (in words)” value in series [1] (prolactin stimulation, eight days) is “Measurable quantities of colostrum-SAA could be detected by day two”.

B2: colostrum-SAA: unique isoform of serum amyloid A found in bovine colostrum and MAC-T cell culture fluid (protein)
chain: QRWGTFLKEAGQGAKDMWRAYQDMKEANYRGADKYFHARGNYDAARRGPGGAWAAKVISNARETIQGITDPLFKGMTRDQVREDSKADQFANEWGRSGKDPNHFRPAGLPDKY
With B2, the “apparent pI” value in series [2] (listed as SAA purified from the culture fluid of MAC-T cells stimulated with LPS) was 9.4–9.6.

B3: SAA from the serum: SAA semi-purified from bovine serum, three isoforms staining with anti-SAA monoclonal antibody (protein)
chain: QWMSFFGEAYEGAKDMWRAYSDMREANYKGADKYFHARGNYDAAQRGPGGAWAAKVISDARENIQRFTDPLFKGTTSGQGQEDSRADQAANEWGRSGKDPNHFRPAGLPDKY
B3: the “apparent pI” value in series [2] is ~7.0 and ~5.8 and ~5.5.
